Reference: ChEMBL document CHEMBL4414672, “Synthesis of certain benzothieno[3,2-d]pyrimidine derivatives as a selective SIRT2 inhibitors” (Eur J Med Chem, 2020)
Values after ≈ are worked out from the molar mass of the structure shown.

Columns and labels:
UO-31 [1] = experiment: Cytotoxicity against human UO31 cells assessed as reduction in cell viability after 24 hrs by MTT assay; type: functional, cell-based; details: UO-31, 24 h
MCF7 = experiment: Cytotoxicity against human MCF7 cells assessed as reduction in cell viability after 24 hrs by MTT assay; type: functional, cell-based; details: MCF7, 24 h
RXF 393 = experiment: Growth inhibition of human RXF393 cells at 10^-5 M incubated for 48 hrs by sulforhodamine B assay; type: functional; details: RXF 393, 48 h, read-out: GI
HL-60(TB) = experiment: Growth inhibition of human HL-60(TB) cells at 10^-5 M incubated for 48 hrs by sulforhodamine B assay; type: functional; details: HL-60, 48 h, read-out: GI
OVCAR-8 = experiment: Growth inhibition of human OVCAR8 cells at 10^-5 M incubated for 48 hrs by sulforhodamine B assay; type: functional; details: OVCAR-8, 48 h, read-out: GI
NCI-H460 = experiment: Growth inhibition of human NCI-H460 cells at 10^-5 M incubated for 48 hrs by sulforhodamine B assay; type: functional; details: NCI-H460, 48 h, read-out: GI
UO-31 [2] = experiment: Growth inhibition of human UO31 cells at 10^-5 M incubated for 48 hrs by sulforhodamine B assay; type: functional; details: UO-31, 48 h, read-out: GI
SK-MEL-2 = experiment: Growth inhibition of human SK-MEL-2 cells at 10^-5 M incubated for 48 hrs by sulforhodamine B assay; type: functional; details: SK-MEL-2, 48 h, read-out: GI
NCI/ADR-RES = experiment: Growth inhibition of human NCI/ADR-RES cells at 10^-5 M incubated for 48 hrs by sulforhodamine B assay; type: functional; details: read-out: GI
KM12 = experiment: Growth inhibition of human KM12 cells at 10^-5 M incubated for 48 hrs by sulforhodamine B assay; type: functional; details: KM12, 48 h, read-out: GI
HCT-116 = experiment: Growth inhibition of human HCT116 cells at 10^-5 M incubated for 48 hrs by sulforhodamine B assay; type: functional; details: HCT-116, 48 h, read-out: GI
HOP-92 = experiment: Growth inhibition of human HOP92 cells at 10^-5 M incubated for 48 hrs by sulforhodamine B assay; type: functional; details: HOP-92, 48 h, read-out: GI
SF-268 = experiment: Growth inhibition of human SF268 cells at 10^-5 M incubated for 48 hrs by sulforhodamine B assay; type: functional; details: SF-268, 48 h, read-out: GI
MDA-MB-231 = experiment: Growth inhibition of human MDA-MB-231 cells at 10^-5 M incubated for 48 hrs by sulforhodamine B assay; type: functional; details: MDA-MB-231, 48 h, read-out: GI
NCI-H23 = experiment: Growth inhibition of human NCI-H23 cells at 10^-5 M incubated for 48 hrs by sulforhodamine B assay; type: functional; details: NCI-H23, 48 h, read-out: GI
U-251 = experiment: Growth inhibition of human U251 cells at 10^-5 M incubated for 48 hrs by sulforhodamine B assay; type: functional; details: U-251, 48 h, read-out: GI
M14 = experiment: Growth inhibition of human M14 cells at 10^-5 M incubated for 48 hrs by sulforhodamine B assay; type: functional; details: M14, 48 h, read-out: GI
SK-OV-3 = experiment: Growth inhibition of human SKOV3 cells at 10^-5 M incubated for 48 hrs by sulforhodamine B assay; type: functional; details: SK-OV-3, 48 h, read-out: GI
[3] = target: T1, NAD-dependent protein deacetylase sirtuin-2 (Homo sapiens, UniProt Q8IXJ6); experiment: Inhibition of SIRT2 (unknown origin) using fluorogenic substrate assessed as deacetylase activity incubated for 45 mins by fluorescence assay
T1 sequence (Q8IXJ6 whole entry): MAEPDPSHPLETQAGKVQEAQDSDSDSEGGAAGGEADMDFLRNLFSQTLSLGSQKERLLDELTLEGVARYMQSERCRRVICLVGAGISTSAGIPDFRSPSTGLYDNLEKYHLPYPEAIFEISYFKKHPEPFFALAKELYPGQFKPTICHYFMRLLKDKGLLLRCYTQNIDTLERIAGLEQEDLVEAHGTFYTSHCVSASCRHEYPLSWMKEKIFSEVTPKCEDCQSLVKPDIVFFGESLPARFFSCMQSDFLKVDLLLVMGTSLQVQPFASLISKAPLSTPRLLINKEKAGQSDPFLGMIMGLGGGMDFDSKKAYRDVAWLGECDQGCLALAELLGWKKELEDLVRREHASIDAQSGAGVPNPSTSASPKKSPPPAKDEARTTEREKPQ

HOP-62 = experiment: Growth inhibition of human HOP62 cells at 10^-5 M incubated for 48 hrs by sulforhodamine B assay; type: functional; details: HOP-62, 48 h, read-out: GI
K562 = experiment: Growth inhibition of human K562 cells at 10^-5 M incubated for 48 hrs by sulforhodamine B assay; type: functional; details: K562, 48 h, read-out: GI
SK-MEL-5 = experiment: Growth inhibition of human SK-MEL-5 cells at 10^-5 M incubated for 48 hrs by sulforhodamine B assay; type: functional; details: SK-MEL-5, 48 h, read-out: GI
786-0 = experiment: Growth inhibition of human 786-0 cells at 10^-5 M incubated for 48 hrs by sulforhodamine B assay; type: functional; details: 786-0, 48 h, read-out: GI

SMILES | IC50 (UO-31 [1]) | IC50 (MCF7) | inhibition of growth at 10 µM (RXF 393) | inhibition of growth at 10 µM (HL-60(TB)) | inhibition of growth at 10 µM (OVCAR-8) | inhibition of growth at 10 µM (NCI-H460) | inhibition of growth at 10 µM (UO-31 [2]) | inhibition of growth at 10 µM (SK-MEL-2) | inhibition of growth at 10 µM (NCI/ADR-RES) | inhibition of growth at 10 µM (KM12) | inhibition of growth at 10 µM (HCT-116) | inhibition of growth at 10 µM (HOP-92) | inhibition of growth at 10 µM (SF-268) | inhibition of growth at 10 µM (MDA-MB-231) | inhibition of growth at 10 µM (NCI-H23) | inhibition of growth at 10 µM (U-251) | inhibition of growth at 10 µM (M14) | inhibition of growth at 10 µM (SK-OV-3) | inhibition of growth at 10 µM (HOP-62) | inhibition of growth at 10 µM (K562) | other results
O=[N+]([O-])c1cccc(C2c3sc4ccc(Cl)cc4c3N=C3NN=C(c4cccc(F)c4)N32)c1 (centres undefined) | 10.5 µg/mL (≈ 21.9 µM) | 0.23 µg/mL (≈ 0.481 µM) | -16.7% | 2.97% | -1.43% | 13.4% | 41.4% | -11.2% | -2.63% | 2.47% | 2.49% | -18% | 2.25% | 13.4% | 10.1% | -1.33% | -2.52% | 6.58% | 14.2% | 6.99% | IC50 [3]: 8.47 µM; inhibition of growth at 10 µM (SK-MEL-5): 4.01%; inhibition of growth at 10 µM (786-0): -1.01%
O=[N+]([O-])c1cccc(C2NC(N3CCOCC3)=Nc3c2sc2ccc(Cl)cc32)c1 (centres undefined) | 3.11 µg/mL (≈ 7.25 µM) | 10.4 µg/mL (≈ 24.3 µM) | -8.09% | -10.4% | -3% | 4.82% | 41.8% | -1.1% | -3.21% | 4.2% | 6.8% | 10.1% | 3.84% | 18.3% | 13.4% | 1.11% | -1.17% | -6.18% | 9.52% | -3.76% | inhibition of growth at 10 µM (SK-MEL-5): 4.38%; inhibition of growth at 10 µM (786-0): -5.37%
S=C1Nc2c(sc3ccc(Cl)cc23)C(c2ccc3ccccc3c2)N1 (centres undefined) | 7.91 µg/mL (≈ 20.8 µM) | 19.6 µg/mL (≈ 51.6 µM) | -0.71% | -2.53% | 8.23% | 6.2% | -25.5% | 9.98% | 4.45% | -6.6% | 9.94% | 27.5% | 10.3% | 23% | 15.2% | 7.46% | 7.85% | 12.2% | 10.1% | 4% | inhibition of growth at 10 µM (SK-MEL-5): 5.24%; inhibition of growth at 10 µM (786-0): 4.93%
CCOC(=O)CSC1=Nc2c(sc3ccc(Cl)cc23)C(c2cccc([N+](=O)[O-])c2)N1 (centres undefined) | 11.8 µg/mL (≈ 25.6 µM) | 22.1 µg/mL (≈ 47.9 µM) | -12.8% | 3.55% | -1.34% | -0.74% | 44.7% | -6.23% | 1.65% | -0.19% | 3.88% | -10.1% | 3.8% | 9.26% | 9.36% | 3.38% | -3.62% | 8.27% | 19.6% | 10.3% | inhibition of growth at 10 µM (SK-MEL-5): 3.95%; inhibition of growth at 10 µM (786-0): -2.24%
